# Read-outs that look alike come from different tables or passages of the source.
# Tests used:
# [1] = tested on: wild-type HSV-2; assay: Plaque inhibition, wild-type HSV-2 in Vero cells; format: cell-based; conditions: FIG. 7, Panel A
# [2] = tested on: acyclovir-resistant HSV-2; assay: Plaque inhibition, acyclovir-resistant HSV-2 in Vero cells; format: cell-based; conditions: FIG. 7, Panel B
# [3] = tested on: viruses; conditions: cited from earlier work
# [4] = literature; cited from earlier work
# [5] = tested on: herpes; conditions: literature, animal studies; cited from earlier work
# [6] = tested on: herpes; conditions: literature, tissue culture; cited from earlier work
# [7] = tested on: HIV-1; assay: HIV-1 replication in PHA/IL-2-stimulated human peripheral blood mononuclear cells (p24 ELISA); format: cell-based; conditions: n-docosanol/Pluronic, FIG. 13
# Experimental: Human peripheral blood mononuclear cells were cultured in medium containing 1 μg/ml PHA plus 5 units/ml IL-2 alone or also containing 100 μg/ml PFA, […] F-68 control vehicle contained in the high dose of n-docosanol/Pluronic. After overnight incubation, the cultures were inoculated with HIV-1 at a multiplicity of infection of 1 virion/cell. After 24 hours incubation at 37° C., the cultures were washed and inoculated with fresh medium containing PHA and IL-2, but lacking inhibitor. Replication of HIV-1 was determined 4 days later by quantitation of viral antigens by a p24-specific ELISA for HIV-1.
# Our initial studies on HIV were conducted in collaboration with a U.S. National Institutes of Health laboratory and one of several experiments of this type is summarized in FIG. 13. Normal human peripheral blood mononuclear cells were activated with […] PHA plus 5 units/ml of IL-2 in medium alone or in the presence of the n-docosanol, Pluronic F-68 control vehicle, or phosphonoformic acid (PFA). The next day, the cultures were inoculated with HIV-1 and examined 4 days later for evidence of viral replication by detection of the p24 viral antigen. […] The dose response of HIV-1 to n-docosanol indicates an ED 50 of about 6-9 mM.
smiles,measurement,setting,value
"Nc1nc2c(ncn2COCCO)c(=O)[nH]1 [acyclovir, reference compound]",inhibition of plaque formation,[1],inhibit plaque formation by wild type HSV-2 equally
same,inhibition of acyclovir-resistant HSV-2 mutant,[2],fails to respond
CCCCCCCCCCO [Formulation C-10],antiviral activity,[3]; literature,significant antiviral activity
same,cytotoxic and hemolytic effects,[4],exhibited cytotoxic and hemolytic effects
CCCCCCCCCCCCCCCCCCCCCCCCCCCCCCO [triacontanol],anti-herpes activity,[5],active as an anti-herpes agent
same,direct antiviral activity,[6],lacked direct antiviral activity
"O=C(O)P(=O)(O)O [phosphonoformic acid, reference compound]",inhibition of HIV-1 replication,[7],very potent antiviral compound
OCc1ccccc1 [benzyl alcohol],antiviral activity,"[3]; under certain circumstances, U.S. Pat. No. 4,200,655",some antiviral activity
CCCCCCCCCCCCO [Formulation C-12],antiviral activity,[3]; literature,significant antiviral activity
same,cytotoxic and hemolytic effects,[4],exhibited cytotoxic and hemolytic effects
